Source: BindingDB's records for doi:10.1016/j.bioorg.2014.08.007 (Central University of Punjab, 2014)

Target: Xanthine dehydrogenase/oxidase (Bos taurus, UniProt P80457)
Assay: XO inhibitory assay
Conditions: pH 7.5; 25 °C
Protocol: The reaction mixture contained 1.5 mL of 50 mM potassium phosphate buffer (pH 7.5), 1 mL test sample solutions (5, 10, 25, 50, and 100 µM) was dissolved in DMSO, 0.5 mL of XO enzyme solution (0.2 units/mL of xanthine oxidase in phosphate buffer). The reaction mixture was pre-incubated at room temperature for 15 min, followed by the addition of 1 mL of substrate solution (0.10 mM of xanthine). The mixture was further incubated at room temperature for 30 min and stopped with the addition of 1 mL of 1 M HCl.

Sequence of Xanthine dehydrogenase/oxidase (P80457 whole entry): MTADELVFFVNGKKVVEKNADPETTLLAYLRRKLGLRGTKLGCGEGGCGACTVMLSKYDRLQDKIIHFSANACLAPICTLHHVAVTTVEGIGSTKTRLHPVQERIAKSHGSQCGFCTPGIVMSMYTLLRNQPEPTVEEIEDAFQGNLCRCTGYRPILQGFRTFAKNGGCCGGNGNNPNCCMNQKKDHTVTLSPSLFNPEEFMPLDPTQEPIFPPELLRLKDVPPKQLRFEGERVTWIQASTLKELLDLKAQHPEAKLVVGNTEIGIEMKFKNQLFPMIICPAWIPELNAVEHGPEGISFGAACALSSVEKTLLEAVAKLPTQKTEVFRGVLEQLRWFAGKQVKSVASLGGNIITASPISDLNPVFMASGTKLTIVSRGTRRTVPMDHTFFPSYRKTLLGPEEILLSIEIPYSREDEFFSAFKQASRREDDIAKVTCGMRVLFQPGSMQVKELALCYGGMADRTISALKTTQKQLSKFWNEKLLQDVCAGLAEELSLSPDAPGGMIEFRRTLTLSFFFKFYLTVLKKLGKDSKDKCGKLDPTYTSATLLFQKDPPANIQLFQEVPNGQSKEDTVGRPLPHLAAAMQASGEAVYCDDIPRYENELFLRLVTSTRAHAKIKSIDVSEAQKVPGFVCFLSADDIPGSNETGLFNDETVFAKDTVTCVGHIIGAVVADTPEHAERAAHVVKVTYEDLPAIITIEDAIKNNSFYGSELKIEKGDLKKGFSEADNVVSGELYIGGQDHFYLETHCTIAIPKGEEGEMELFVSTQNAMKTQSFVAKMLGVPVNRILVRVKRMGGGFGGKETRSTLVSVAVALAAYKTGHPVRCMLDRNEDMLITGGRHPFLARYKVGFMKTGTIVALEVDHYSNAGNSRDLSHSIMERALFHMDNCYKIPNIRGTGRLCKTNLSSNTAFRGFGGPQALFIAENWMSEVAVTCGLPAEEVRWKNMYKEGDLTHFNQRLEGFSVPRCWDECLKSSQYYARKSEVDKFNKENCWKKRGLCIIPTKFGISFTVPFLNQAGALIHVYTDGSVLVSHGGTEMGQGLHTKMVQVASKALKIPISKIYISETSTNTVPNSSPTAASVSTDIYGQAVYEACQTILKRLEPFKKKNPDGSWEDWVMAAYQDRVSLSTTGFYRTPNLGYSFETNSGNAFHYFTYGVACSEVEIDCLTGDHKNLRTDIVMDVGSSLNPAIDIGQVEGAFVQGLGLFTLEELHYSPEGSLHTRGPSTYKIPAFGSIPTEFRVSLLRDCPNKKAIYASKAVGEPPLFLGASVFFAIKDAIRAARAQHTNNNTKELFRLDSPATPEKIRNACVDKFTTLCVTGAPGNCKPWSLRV

Row | Compound | IC50
1 | Oc1c(Cl)cc(Cl)cc1C1Nc2ccccc2-c2cc(-c3ccccc3)nn21 (centres undefined) [2,4‐dichloro‐6‐{2‐phenyl‐5H,6H‐pyrazolo[1,5‐ c]quinazolin‐5‐yl}phenol (6g)] | 11 µM
2 | O=[N+]([O-])c1cccc(C2Nc3ccccc3-c3cc(-c4ccccc4)nn32)c1 (centres undefined) [5‐(3‐nitrophenyl)‐2‐phenyl‐5H,6H‐pyrazolo[1,5‐ c]quinazoline (6h)] | 20.9 µM
3 | COc1ccc(C2Nc3ccccc3-c3cc(-c4ccccc4)nn32)cc1OC (centres undefined) [5‐(3,4‐dimethoxyphenyl)‐2‐phenyl‐5H,6H‐ pyrazolo[1,5‐c]quinazoline (6e)] | 43.6 µM
4 | Nc1ccccc1-c1cc(-c2ccccc2)n[nH]1 | 41.7 µM
